This note sets out measurements from ChEMBL document CHEMBL5247667, “Design, synthesis and characterizations of prodrugs of brexanolone” (Bioorg Med Chem Lett, 2023).

Molecules are shown by their SMILES. Bounds are passed on as bounds.

A short description of data set [1]: Prodrug conversion in beagle dog assessed as ratio of AUC for compound to BXN at 5 mg/kg,IM and measured after 60 mins by LC-MS/MS analysis. Format: ADME, organism-based, Canis lupus familiaris. Conditions: in vivo, 1 h.
Data set [2] in a line: Half life in Sprague-Dawley rat assessed as BXN at 1 mg/kg, IV administered for 30 mins measured after 24 hrs post dose by LC-MS/MS analysis. Format: ADME, organism-based. Conditions: in vivo, 24.5 h.
The nature of data set [3]: Prodrug conversion in beagle dog assessed as ratio of AUC for compound to BXN at 1 mg/kg,IV and measured after 60 mins by LC-MS/MS analysis. It counts as ADME, organism-based, Canis lupus familiaris. Conditions: in vivo, 1 h.
Data set [4] is described as follows: Cmax in Sprague-Dawley rat assessed as BXN at 5 mg/kg, IM administered for 30 mins measured after 24 hrs post dose by LC-MS/MS analysis. More on the design: time 24.5 hrs, dose 5 mg/kg, route im. Conditions: in vivo, 24.5 h. It counts as ADME, organism-based.
Data set [5] in a line: Half life in beagle dog assessed as BXN at 1 mg/kg, IV administered for 30 mins measured after 24 hrs post dose by LC-MS/MS analysis. It counts as ADME, organism-based, Canis lupus familiaris. Conditions: in vivo, 24.5 h.
A short description of data set [6]: AUClast in beagle dog at 1 mg/kg, IV administered for 30 mins measured after 24 hrs post dose by LC-MS/MS analysis. Details: time 24.5 hrs, dose 1 mg/kg, route iv. It counts as ADME, organism-based, Canis lupus familiaris. Conditions: in vivo.
The nature of data set [7]: Cmax in Sprague-Dawley rat at 1 mg/kg, IV administered for 30 mins measured after 24 hrs post dose by LC-MS/MS analysis. Format: ADME, organism-based. More on the design: time 24.5 hrs, dose 1 mg/kg, route iv. Conditions: in vivo.
Data set [8] can be described thus: Metabolic stability in beagle dog liver S9 fraction assessed as half life at 1 uM incubated for 60 min by LC-MS/MS method. It counts as ADME, subcellular, Canis lupus familiaris.
A short description of data set [9]: Half life in Sprague-Dawley rat at 1 mg/kg, IV administered for 30 mins measured after 24 hrs post dose by LC-MS/MS analysis. Conditions: in vivo, time 24.5 hrs. Format: ADME, organism-based.
Data set [10] can be described thus: Metabolic stability in beagle dog plasma assessed as half life at 1 uM incubated for 60 min by LC-MS/MS method. Format: ADME, cell-free, Canis lupus familiaris.
Data set [11] in a line: Half life in beagle dog assessed as BXN at 5 mg/kg, IM administered for 30 mins measured after 24 hrs post dose by LC-MS/MS analysis. It counts as ADME, organism-based, Canis lupus familiaris. Conditions: in vivo, 24.5 h.
A short description of data set [12]: AUClast in beagle dog assessed as BXN at 5 mg/kg, IM administered for 30 mins measured after 24 hrs post dose by LC-MS/MS analysis. Conditions: in vivo, 24.5 h. Details: time 24.5 hrs, dose 5 mg/kg, route im. It counts as ADME, organism-based, Canis lupus familiaris.
Data set [13] in a line: Metabolic stability in human liver S9 fraction assessed as half life at 1 uM incubated for 60 min by LC-MS/MS method. Format: ADME, subcellular.
The nature of data set [14]: Metabolic stability in human plasma assessed as half life at 1 uM incubated for 60 min by LC-MS/MS method. It counts as ADME, cell-free.
Data set [15] in a line: AUClast in beagle dog assessed as BXN at 1 mg/kg, IV administered for 30 mins measured after 24 hrs post dose by LC-MS/MS analysis. It counts as ADME, organism-based, Canis lupus familiaris. More on the design: dose 1 mg/kg, time 24.5 hrs, route iv. Conditions: in vivo, 24.5 h.
Data set [16] in a line: Cmax in beagle dog assessed as BXN at 5 mg/kg, IM administered for 30 mins measured after 24 hrs post dose by LC-MS/MS analysis. Details: time 24.5 hrs, dose 5 mg/kg, route im. Format: ADME, organism-based, Canis lupus familiaris. Conditions: in vivo, 24.5 h.
Data set [17] in a line: Half life in Sprague-Dawley rat assessed as BXN at 5 mg/kg, IM administered for 30 mins measured after 24 hrs post dose by LC-MS/MS analysis. Format: ADME, organism-based. Conditions: in vivo, 24.5 h.
Data set [18] is described as follows: Metabolic stability in Sprague-Dawley rat plasma assessed as half life at 1 uM incubated for 60 min by LC-MS/MS method. It counts as ADME, cell-free.
The nature of data set [19]: Cmax in beagle dog at 1 mg/kg, IV administered for 30 mins measured after 24 hrs post dose by LC-MS/MS analysis. Format: ADME, organism-based, Canis lupus familiaris. More on the design: time 24.5 hrs, dose 1 mg/kg, route iv. Conditions: in vivo.
The nature of data set [20]: Cmax in Sprague-Dawley rat assessed as BXN at 1 mg/kg, IV administered for 30 mins measured after 24 hrs post dose by LC-MS/MS analysis. It counts as ADME, organism-based. Details: time 24.5 hrs, dose 1 mg/kg, route iv. Conditions: in vivo, 24.5 h.
The nature of data set [21]: Prodrug conversion in Sprague-Dawley rat assessed as ratio of AUC for compound to BXN at 5 mg/kg,IM and measured after 60 mins by LC-MS/MS analysis. Format: ADME, organism-based. Conditions: in vivo, 1 h.
Data set [22] in a line: AUClast in Sprague-Dawley rat assessed as BXN at 1 mg/kg, IV administered for 30 mins measured after 24 hrs post dose by LC-MS/MS analysis. Format: ADME, organism-based. More on the design: dose 1 mg/kg, time 24.5 hrs, route iv. Conditions: in vivo, 24.5 h.
Data set [23] in a line: Prodrug conversion in Sprague-Dawley rat assessed as ratio of AUC for compound to BXN at 1 mg/kg,IV and measured after 60 mins by LC-MS/MS analysis. Format: ADME, organism-based. Conditions: in vivo, 1 h.
A short description of data set [24]: Clearance in Sprague-Dawley rat at 1 mg/kg, IV administered for 30 mins measured after 24 hrs post dose by LC-MS/MS analysis. Format: ADME, organism-based. Conditions: in vivo, time 24.5 hrs.
The nature of data set [25]: Cmax in beagle dog assessed as BXN at 1 mg/kg, IV administered for 30 mins measured after 24 hrs post dose by LC-MS/MS analysis. It counts as ADME, organism-based, Canis lupus familiaris. Details: dose 1 mg/kg, time 24.5 hrs, route iv. Conditions: in vivo, 24.5 h.
Data set [26] is described as follows: AUClast in Sprague-Dawley rat assessed as BXN at 5 mg/kg, IM administered for 30 mins measured after 24 hrs post dose by LC-MS/MS analysis. Format: ADME, organism-based. Details: time 24.5 hrs, dose 5 mg/kg, route im. Conditions: in vivo, 24.5 h.
Data set [27] can be described thus: AUClast in Sprague-Dawley rat at 1 mg/kg, IV administered for 30 mins measured after 24 hrs post dose by LC-MS/MS analysis. It counts as ADME, organism-based. More on the design: dose 1 mg/kg, time 24.5 hrs, route iv. Conditions: in vivo.
Data set [28] is described as follows: Cmax in Sprague-Dawley rat at 5 mg/kg, IM administered for 30 mins measured after 24 hrs post dose by LC-MS/MS analysis. It counts as ADME, organism-based. More on the design: time 24.5 hrs, dose 5 mg/kg, route im. Conditions: in vivo.
Data set [29] can be described thus: AUClast in Sprague-Dawley rat at 5 mg/kg, IM administered for 30 mins measured after 24 hrs post dose by LC-MS/MS analysis. More on the design: time 24.5 hrs, dose 5 mg/kg, route im. Conditions: in vivo. Format: ADME, organism-based.
The nature of data set [30]: Metabolic stability in Sprague-Dawley rat liver S9 fraction assessed as half life at 1 uM incubated for 60 min by LC-MS/MS method. Format: ADME, subcellular.
Data set [31] is described as follows: Half life in Sprague-Dawley rat at 5 mg/kg, IM administered for 30 mins measured after 24 hrs post dose by LC-MS/MS analysis. It counts as ADME, organism-based. Conditions: in vivo, time 24.5 hrs.
Data set [32] in a line: Cmax in beagle dog at 5 mg/kg, IM administered for 30 mins measured after 24 hrs post dose by LC-MS/MS analysis. Format: ADME, organism-based, Canis lupus familiaris. Details: time 24.5 hrs, dose 5 mg/kg, route im. Conditions: in vivo.
The nature of data set [33]: AUClast in beagle dog at 5 mg/kg, IM administered for 30 mins measured after 24 hrs post dose by LC-MS/MS analysis. Format: ADME, organism-based, Canis lupus familiaris. Details: dose 5 mg/kg, time 24.5 hrs, route im. Conditions: in vivo.

For the compound `CC(=O)[C@H]1CC[C@H]2[C@@H]3CC[C@H]4C[C@H](OC(=O)OCc5oc(=O)oc5C)CC[C@]4(C)[C@H]3CC[C@]12C`, the “Ratio AUC” value in data set [1] is given as greater than 122; in data set [3], 2.4; in data set [21], 2.9; in data set [23] it was greater than 253. Moreover, the t1/2 is 1900 min in data set [2], 28.4 min in data set [5], 10.3 h in data set [11] and 1730 min in [17]. Also, the Cmax (usually the maximum level reached in the sampled fluid or tissue) in data set [4] amounted to 23.4 ng/mL; in data set [7], 103 ng/mL; in data set [16], 26.6 ng/mL; in data set [19], 151 ng/mL; in data set [20], 107 ng/mL; in data set [25], 241 ng/mL. Further, the AUC(0-t) (in general, exposure summed from dosing to a finite time, without extrapolation to infinity) at 24.5 h came to 62.6 ng·h/mL in data set [6] and 38.6 ng·h/mL in [27]. Besides, the half-life (commonly the time in which the quantity being followed falls by half) at 1 µM was 2.3 min in data set [8]; 30 min in [10]; 1.2 min in data set [13]; 40 min in [14]; less than 2 min in [18]. In [9], the half-life was 17 min. The AUClast in [12] came to 122 ng·h/mL; in data set [15] it was 148 ng·h/mL; in [22], 113 ng·h/mL; in data set [26], 253 ng·h/mL. Moreover, the clearance (as a rule, the rate of elimination divided by the concentration) in data set [24] is 440 mL/min/kg.

On to `CC(=O)[C@H]1CC[C@H]2[C@@H]3CC[C@H]4C[C@H](OC(=O)CC5CCCC5)CC[C@]4(C)[C@H]3CC[C@]12C`, for which the half-life at 1 µM came out at 25 min in data set [13] and 300 min in [14].

`CC(=O)OCCCC(C)C(=O)O[C@@H]1CC[C@@]2(C)[C@@H](CC[C@@H]3[C@@H]2CC[C@]2(C)[C@@H](C(C)=O)CC[C@@H]32)C1` (some centres not stated): the half-life at 1 µM in data set [8] is 1 min; in [10], 233 min; in data set [13], 0.9 min; in [14] it was 145 min.

Turning to `CCCCCC(=O)O[C@@H]1CC[C@@]2(C)[C@@H](CC[C@@H]3[C@@H]2CC[C@]2(C)[C@@H](C(C)=O)CC[C@@H]32)C1`, the “Ratio AUC” value in [1] turned out to be 0.09. Also, the results for the Cmax in data set [4] and in [28] were 12.9 ng/mL and 130 ng/mL, respectively. Besides, the half-life at 1 µM is 22.9 min in [13], greater than 300 min in [14], greater than 289 min in [18] and 4.7 min in [30]. Further, the AUC(0-t) at 24.5 h in data set [29] came out at 716 ng·h/mL. Further, the half-life in data set [31] was 476 min. Also, the AUClast in data set [26] stood at 67.9 ng·h/mL.

`CC(=O)[C@H]1CC[C@H]2[C@@H]3CC[C@H]4C[C@H](OC(=O)NCCOC(=O)C(C)C)CC[C@]4(C)[C@H]3CC[C@]12C`: the results for the half-life at 1 µM in [13] and in data set [14] were 0.6 min and 289 min, respectively.

In the case of `CC(=O)[C@H]1CC[C@H]2[C@@H]3CC[C@H]4C[C@H](OC(=O)OCCOC(=O)C(C)C)CC[C@]4(C)[C@H]3CC[C@]12C`, the “Ratio AUC” value is reported as 3.3 in [1], 0.1 in [3], 28 in data set [21] and greater than 390 in data set [23]. The values for the t1/2 in data set [2] and in [11] were 810 min and 53.3 h, respectively. Moreover, the Cmax in data set [4] was 81.2 ng/mL; in data set [7] it was 45.6 ng/mL; in data set [16], 11.3 ng/mL; in data set [19] it was 590 ng/mL; in data set [20], 119 ng/mL; in data set [32], 31.4 ng/mL. Moreover, the Cmax in [25] was 41.9 ng/mL. Also, the values for the AUC(0-t) at 24.5 h in data set [6], in [33] and in data set [27] were 238 ng·h/mL, 36.5 ng·h/mL and 9.03 ng·h/mL, respectively. The half-life at 1 µM was 2.5 min in data set [8]; 92 min in [10]; 2.5 min in data set [13]; 90 min in data set [14]; less than 3 min in [18]. Besides, the AUClast was 119 ng·h/mL in data set [12], 24 ng·h/mL in data set [15], 256 ng·h/mL in [22] and 390 ng·h/mL in data set [26]. This compound showed a half-life in [31] of 143 min.

As for `CCCCOC(=O)O[C@@H]1CC[C@@]2(C)[C@@H](CC[C@@H]3[C@@H]2CC[C@]2(C)[C@@H](C(C)=O)CC[C@@H]32)C1`, the half-life at 1 µM in data set [8] is 1.5 min; in data set [10], 132 min; in [13] it was 1.6 min; in data set [14], greater than 233 min; in data set [18] it was 6.3 min; in data set [30], 16 min.
